Publication PMC9698716, “From Serendipity to Rational Identification of the 5,6,7,8-Tetrahydrobenzo[4,5]thieno[2,3-d]pyrimidin-4(3H)-one Core as a New Chemotype of AKT1 Inhibitors for Acute Myeloid Leukemia” (Pharmaceutics, 2022)
Like-named read-outs stand apart in the source and are kept apart here. Values belong to the molecule of their own block, whether it stands above or below them.

Tests used:
[1] = test system: IMS-M2; assay: CellTiter Blue cell viability assay; type: cell-based, human; conditions: IMS-M2, 48 h, read-out: cellular IC50
Text: (§1) The human AML cell lines, OCI-AML3 (carrying the NPM1 gene mutation A and the DNMT3A^R882C mutation), IMS-M2 (carrying the NPM1 gene mutation A), OCI-AML2 (with the wild-type NPM1 and DNMT3A^R635W mutation), and SKM-1 and MOLM-13 (with the wild-type NPM1) were previously reported. The cell lines were purchased from the Deutsche Sammelung von Mikroorganismen und Zellkulturen (DSMZ) (Braunschweig, Germany) cell bank and maintained according to the vendors’ instructions. Briefly, cultured cells were split every 3 days and maintained in an exponential growth phase. The cell lines were tested for mycoplasma using the Universal Mycoplasma Detection Kit (ATCC). The OCI-AML3 were grown in α-MEM supplemented with 20% fetal bovine serum, 100 U/mL penicillin, and 100 μg/mL streptomycin (P/S), and all other cell lines were cultured in RPMI and supplemented with a 10–20% fetal bovine serum and 100 U/mL penicillin and 100 μg/mL streptomycin. The cells were kept at 37 °C in a 5% CO2 incubator. Prior to screening, the appropriate cell concentration for all cell lines was determined. For the cell lines’ treatments, cells were maintained as follows: OCI-AML3 at 0.25 × 10^6/mL, OCI-AML2 and IMS-M2 at 0.35 × 10^6/mL, and SKM-1 and MOLM-13 at 0.5 × 10^6/mL. The compounds were re-suspended at 10 mM stock in DMSO. Further dilutions were performed in phosphate-buffer-saline (PBS) for pharmacological experiments. The cells were exposed to compounds at different concentrations for the indicated time points and sampled as described below. Briefly, the cells (4 × 10^5/mL) were seeded in 384-well plate and treated for 48 h with various concentrations (0.001 μM to 100 μM) of either one of the compounds, T101, T126, and T159, or NSC348884, as a positive control. Each plate included DMSO at 0.1% as a negative control. The metabolic cell activity was measured by using the CellTiter Blue proliferation agent (Roche) as described in the manufacturer’s procedure. Briefly, CellTiter Blue solution (Resazaurin) was added to each well and the plates were incubated at 37 °C with 5% CO2 for 4 h. During the incubation time, the resazurin is reduced to fluorescent resorufin in metabolically and proliferating living cells. The fluorescence intensity was measured using the automated Tecan plate reader (Tecan Group Ltd., Männedorf, Switzerland) at an excitation/emission wavelength of 531/572 nm. The fluorescence readouts were reported as relative fluorescence units (RFU) and read on a luminescence plate reader (Infinite 200 Pro, Tecan, CA, USA). The dose response curves ([…] (IC50)) were obtained by non-linear regression analysis using the GraphPad Prism 5.0 program. The concentration is shown as a logarithmic function. All the experiments were performed at least in triplicate, with technical repetition. The results are expressed as mean ± standard error of the mean (SEM). For the Colony Forming Unit (CFU) assay, 10 × 10^6 CD34+ human hematopoietic progenitors were received from unique healthy donors, upon signed informed consent, and were cultured in SFEM II (Serum-free medium) and P/S at a density of 1 × 10^6/mL with cytokines that are important for cell division and self-renewal: fms-like tyrosine kinase 3 (FLT3)-ligand, FLT3L (100 ng/mL), Stem Cell Factor, SCF (100 ng/mL) and Trombopoietin, and TPO (50 ng/mL) for 48 h before plating them on a Methocult medium.

[2] = test system: MOLM-13; assay: CellTiter Blue cell viability assay; type: cell-based, human; conditions: MOLM-13, 48 h, read-out: cellular IC50
Text: as §1

[3] = test system: OCI-AML2; assay: CellTiter Blue cell viability assay; type: cell-based, human; conditions: OCI-AML2, 48 h, read-out: cellular IC50
Text: as §1

[4] = test system: OCI-AML3; assay: CellTiter Blue cell viability assay; type: cell-based, human; conditions: OCI-AML3, 48 h, read-out: cellular IC50
Text: as §1

[5] = test system: SKM-1; assay: CellTiter Blue cell viability assay; type: cell-based, human; conditions: SKM-1, 48 h, read-out: cellular IC50
Text: as §1

[6] = biological target: T1, AKT1 (Homo sapiens, UniProt P31749); assay: AKT1 enzymatic inhibition assay; type: biochemical; conditions: for Ligand efficiency (LE = 1.4 pIC50/N): from AKT1 IC50, N = heavy atoms; for Ki: read-out: Ki (AKT1 inhibition constant)
T1 construct: purchased Kinase Logistics, Meyn, Germany #Aps 01-101
Protocol: The studied compounds, including the standard inhibitor Staurosporine (Thermo-Fisher , Madrid, Spain, Invitrogen BP2541), were incubated with 3 nM AKT1 (#Aps 01-101; Kinase Logistics, Meyn, Germany) and 1.5 μM Profiler Pro peptide 6 (#760350; Perkin Elmer, Tres Cantos, Madrid, Spain) in the presence of different concentrations of Adenosine 5′triphosphate disodium salt, ATP (#A2383; Sigma Aldrich, Madrid, Spain) in a 384-well Microplate (#781076; Greiner, San Sebastián de los Reyes, Madrid, Spain). The reaction rate was calculated from kinetic measurements carried out measured in a Caliper EzReader LabChip 3000 (Caliper, Hopkinton, MA, USA) reader with samples taken each 10 min for a total time of 60 min. The percentage of substrate conversion rate was plotted versus the ATP concentration. The data was analyzed by non-linear fitting with GraphPad Prism by employing the Michaelis–Menten equation. The buffer assay used in the inhibition hAKT1 assay is: Hepes 100 mM, DMSO 4%, Brij 0.003%, Tween 20 0.004%, MgCl2 10 mM, with a pH = 7.5.
The Ki values were calculated by employing the GraphPad Prism equations.

[7] = test system: p38 MAPK; assay: activity against p38 MAPK (originally desired target); type: biochemical
[8] = test system: AKT1; set-up: method as in PMID 33995085; conditions: ref [51]; cited from earlier work
[9] = test system: AKT3; set-up: method as in PMID 33995085; conditions: ref [51]; cited from earlier work
[10] = 10 μM compound, read-out: %inh (percentage of inhibition of AKT1 activity)

T1 sequence (P31749 whole entry): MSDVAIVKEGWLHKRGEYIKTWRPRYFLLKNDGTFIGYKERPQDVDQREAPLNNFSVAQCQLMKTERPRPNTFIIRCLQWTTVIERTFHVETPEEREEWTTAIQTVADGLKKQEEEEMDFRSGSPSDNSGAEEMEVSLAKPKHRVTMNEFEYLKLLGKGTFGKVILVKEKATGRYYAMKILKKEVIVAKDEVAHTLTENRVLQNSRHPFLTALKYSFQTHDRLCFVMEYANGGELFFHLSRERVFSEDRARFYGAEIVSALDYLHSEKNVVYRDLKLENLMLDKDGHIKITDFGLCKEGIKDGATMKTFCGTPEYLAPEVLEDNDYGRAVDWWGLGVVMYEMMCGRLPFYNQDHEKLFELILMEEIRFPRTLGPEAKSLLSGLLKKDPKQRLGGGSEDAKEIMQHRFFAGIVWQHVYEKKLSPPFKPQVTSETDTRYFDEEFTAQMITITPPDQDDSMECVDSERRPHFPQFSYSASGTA

IC50 [2]: 3.4 µM
IC50 [3]: 5.6 µM
IC50 [4]: 6.6 µM
IC50 [5]: 2.1 µM
Structure (SMILES): Cc1ccc2nc(CN(CCN(Cc3nc4ccc(C)cc4[nH]3)Cc3nc4ccc(C)cc4[nH]3)Cc3nc4ccc(C)cc4[nH]3)[nH]c2c1 [NSC348884, reference compound]
IC50 [1]: 7.6 µM

IC50 [6]: 1.62 ± 0.15 µM
inhibition at 10 µM [6, 10]: 95%
Ligand efficiency (LE = 1.4 pIC50/N) [6]: 0.29 kcal mol^−1 N^−1
Ki [6]: 0.24 µM
IC50 ([2]; Homo sapiens): > 30 µM
IC50 ([3]; Homo sapiens): > 30 µM
IC50 ([4]; Homo sapiens, OCI-AML-3): > 30 µM
IC50 ([5]; Homo sapiens): > 30 µM
Structure (SMILES): Cc1cc(-c2ccccc2)nc2nc(NC(=O)c3ccc(O)c(O)c3)nn12 [T101]
IC50 ([1]; Homo sapiens): > 30 µM

IC50 [6]: 30.9 µM
potency against AKT1 (in words) [6]: moderately active
%inh (percentage of inhibition of AKT1 activity) ([6]; 10 μM compound, 10 µM): 60%
inhibition at 10 µM [6, 10]: > 60%
Ligand efficiency (LE = 1.4 pIC50/N) [6]: 0.27 kcal mol^−1 N^−1
Structure (SMILES): O=c1[nH]c(-c2ccc(O)c(O)c2)nc2sc3c(c12)CCCCC3 [T124]

IC50 [6]: 26.6 ± 4.8 µM
potency against AKT1 (in words) [6]: moderately active
inhibition at 10 µM [6, 10]: 78%
Ligand efficiency (LE = 1.4 pIC50/N) [6]: 0.30 kcal mol^−1 N^−1
Structure (SMILES): O=c1[nH]c(-c2ccc(O)c(O)c2)nc2sc3c(c12)CCC3 [T128]

IC50 [6]: 2.12 ± 0.26 µM
inhibition at 10 µM [6, 10]: 94%
Ki [6]: 1.91 µM
IC50 ([2]; Homo sapiens): > 30 µM
IC50 ([3]; Homo sapiens): > 30 µM
IC50 ([4]; Homo sapiens, OCI-AML-3): > 30 µM
IC50 ([5]; Homo sapiens): > 30 µM
Structure (SMILES): NC(=O)c1c(NC(=O)c2ccc(O)c(O)c2)sc2c1CCCCC2 [T159]
IC50 ([1]; Homo sapiens): > 30 µM

IC50 [6]: 11.4 ± 2.8 µM
inhibition at 10 µM [6, 10]: 56%
inhibition at 50 µM ([6]; 50 μM compound solution (footnote b of Table S2), read-out: %inh (percentage of inhibition of AKT1 activity)): 56%
Ligand efficiency (LE = 1.4 pIC50/N) [6]: 0.28 kcal mol^−1 N^−1
Ki [6]: 4.19 ± 1.36 µM
Structure (SMILES): NC(=O)c1c(NC(=O)c2ccc(F)cc2F)sc2c1CCCCC2 [T187, 2-(2,4-Difluorobenzamido)-5,6,7,8-tetrahydro-4H-cyclohepta[b]thiophene-3-carboxamide]
activity against p38 MAPK [7]: inactive

Structure (SMILES): CC(C)NC[C@@H](C(=O)N1CCN(c2ncnc3c2[C@H](C)C[C@H]3O)CC1)c1ccc(Cl)cc1 [ipatasertib]
IC50 [8]: […]
IC50 [9]: […]
